In patent US11331369B2, “Endoparasitic depsipeptides” (Zoetis Services LLC, priority 2017, dated 2022):

What was measured:
Assay type in all cases: cell-based
[1] = tested on: third stage larvae of Haemonchus contortus; assay: Haemonchus contortus L3 (HcL3) Assay; conditions: 96 h, read-out: HcL3 Minimum Effective Dose (MED)
[2] = tested on: 4th stage larvae (L4) of Dirofilaria immitis; assay: Dirofilaria immitis, L4 Stage (DiL4) In Vitro Assay; conditions: Dirofilaria immitis, 72 h, read-out: DiL4 Minimum Effective Dose (MED), approximately 72 hours incubation; L4 larvae assessed for survival or paralysis
[3] = tested on: microfilariae of Dirofilaria immitis; assay: Dirofilaria immitis, Microfilaria (DiMF) In vitro Assay; conditions: 72 h, read-out: DiMF Minimum Effective Dose (MED), approximately 72 hours incubation, microfilariae assessed for survival or paralysis

Compound	minimal effective concentration [1] [µM]	minimal effective concentration [2] [µM]	minimal effective concentration [3] [µM]
CC(C)C[C@H]1C(=O)O[C@H](Cc2ccc(Cn3ccc(Cl)n3)cc2)C(=O)N(C)[C@@H](CC(C)C)C(=O)O[C@H](C)C(=O)N(C)[C@@H](CC(C)C)C(=O)O[C@H](Cc2ccc(Cn3ccc(Cl)n3)cc2)C(=O)N(C)[C@@H](CC(C)C)C(=O)O[C@H](C)C(=O)N1C [Example 1b-96, (3S,6R,9S,12R,15S,18R,21S,24R)-6,18-bis(4-((3-chloro-1H-pyrazol-1-yl)methyl)benzyl)-3,9,15,21-tetraisobutyl-4,10,12,16,22,24-hexamethyl-1,7,13,19-tetraoxa-4,10,16,22-tetraazacyclotetracosan-2,5,8,11,14,17,20,23-octaone]	≤ 1	≤ 0.0001	
CC(C)C[C@H]1C(=O)O[C@H](Cc2ccc(Cn3ccnc3Br)cc2)C(=O)N(C)[C@@H](CC(C)C)C(=O)O[C@H](C)C(=O)N(C)[C@@H](CC(C)C)C(=O)O[C@H](Cc2ccc(Cn3ccnc3Br)cc2)C(=O)N(C)[C@@H](CC(C)C)C(=O)O[C@H](C)C(=O)N1C [Example 6-3, (3S,6R,9S,12R,15S,18R,21S,24R)-6,18-bis[[4-[(2-bromoimidazol-1-yl)methyl]phenyl]methyl]-3,9,15,21-tetraisobutyl-4,10,12,16,22,24-hexamethyl-1,7,13,19-tetraoxa-4,10,16,22-tetrazacyclotetracosane-2,5,8,11,14,17,20,23-octaone]	1 to 10	≤ 0.0001	
COc1ccn(Cc2ccc(C[C@H]3OC(=O)[C@H](CC(C)C)N(C)C(=O)[C@@H](C)OC(=O)[C@H](CC(C)C)N(C)C(=O)[C@@H](Cc4ccc(Cn5ccc(OC)n5)cc4)OC(=O)[C@H](CC(C)C)N(C)C(=O)[C@@H](C)OC(=O)[C@H](CC(C)C)N(C)C3=O)cc2)n1 [Example 1b-115, (3S,6R,9S,12R,15S,18R,21S,24R)-3,9,15,21-tetraisobutyl-6,18-bis(4-((3-methoxy-1H-pyrazol-1-yl)methyl)benzyl)-4,10,12,16,22,24-hexamethyl-1,7,13,19-tetraoxa-4,10,16,22-tetraazacyclotetracosan-2,5,8,11,14,17,20,23-octaone]	≤ 1	≤ 0.0001	
CC(C)C[C@H]1C(=O)O[C@H](Cc2ccc(Cn3c(C#N)ccc3C#N)cc2)C(=O)N(C)[C@@H](CC(C)C)C(=O)O[C@H](C)C(=O)N(C)[C@@H](CC(C)C)C(=O)O[C@H](Cc2ccc(Cn3c(C#N)ccc3C#N)cc2)C(=O)N(C)[C@@H](CC(C)C)C(=O)O[C@H](C)C(=O)N1C [Example 9-12, 1,1′-(((((2R,5S,8R,11S,14R,17S,20R,23S)-5,11,17,23-tetraisobutyl-4,8,10,16,20,22-hexamethyl-3,6,9,12,15,18,21,24-octaoxo-1,7,13,19-tetraoxa-4,10,16,22-tetraazacyclotetracosane-2,14-diyl)bis(methylene))bis(4,1-phenylene))bis(methylene))bis(1H-pyrrole-2,5-dicarbonitrile)]	≤ 1	≤ 0.0001	
CC(C)C[C@H]1C(=O)O[C@H](Cc2ccc(Cn3ccnc3Cl)cc2)C(=O)N(C)[C@@H](CC(C)C)C(=O)O[C@H](C)C(=O)N(C)[C@@H](CC(C)C)C(=O)O[C@H](Cc2ccccc2)C(=O)N(C)[C@@H](CC(C)C)C(=O)O[C@H](C)C(=O)N1C [Example 8-9, (3S,6R,9S,12R,15S,18R,21S,24R)-6-benzyl-18-(4-((2-chloro-1H-imidazol-1-yl)methyl)benzyl)-3,9,15,21-tetraisobutyl-4,10,12,16,22,24-hexamethyl-1,7,13,19-tetraoxa-4,10,16,22-tetraazacyclotetracosan-2,5,8,11,14,17,20,23-octaone]	1 to 10	0.0001 to 0.001	
Cc1cnn(Cc2ccc(C[C@H]3OC(=O)[C@H](CC(C)C)N(C)C(=O)[C@@H](C)OC(=O)[C@H](CC(C)C)N(C)C(=O)[C@@H](Cc4ccc(Cn5ncc(C)c5C)cc4)OC(=O)[C@H](CC(C)C)N(C)C(=O)[C@@H](C)OC(=O)[C@H](CC(C)C)N(C)C3=O)cc2)c1C [Example 1b-152, (3S,6R,9S,12R,15S,18R,21S,24R)-6,18-bis(4-((4,5-dimethyl-1H-pyrazol-1-yl)methyl)benzyl)-3,9,15,21-tetraisobutyl-4,10,12,16,22,24-hexamethyl-1,7,13,19-tetraoxa-4,10,16,22-tetraazacyclotetracosan-2,5,8,11,14,17,20,23-octaone]		0.001 to 0.01	0.001 to 0.01
CCOc1cn(Cc2ccc(C[C@H]3OC(=O)[C@H](CC(C)C)N(C)C(=O)[C@@H](C)OC(=O)[C@H](CC(C)C)N(C)C(=O)[C@@H](Cc4ccc(Cn5ncc(OCC)c5C)cc4)OC(=O)[C@H](CC(C)C)N(C)C(=O)[C@@H](C)OC(=O)[C@H](CC(C)C)N(C)C3=O)cc2)nc1C [Example 1a-38, (3S,6R,9S,12R,15S,18R,21S,24R)-6-[[4-[(4-ethoxy-3-methyl-pyrazol-1-yl)methyl]phenyl]methyl]-18-[[4-[(4-ethoxy-5-methyl-pyrazol-1-yl)methyl]phenyl]methyl]-3,9,15,21-tetraisobutyl-4,10,12,16,22,24-hexamethyl-1,7,13,19-tetraoxa-4,10,16,22-tetrazacyclotetracosane-2,5,8,11,14,17,20,23-octaone]		0.001 to 0.01	0.001 to 0.01
CC(C)C[C@H]1C(=O)O[C@H](Cc2ccc(Cn3ncnc3-c3ccc(Cl)cc3)cc2)C(=O)N(C)[C@@H](CC(C)C)C(=O)O[C@H](C)C(=O)N(C)[C@@H](CC(C)C)C(=O)O[C@H](Cc2ccc(Cn3ncnc3-c3ccc(Cl)cc3)cc2)C(=O)N(C)[C@@H](CC(C)C)C(=O)O[C@H](C)C(=O)N1C [Example 9-58, (3S,6R,9S,12R,15S,18R,21S,24R)-6,18-bis(4-((5-(4-chlorophenyl)-1H-1,2,4-triazol-1-yl)methyl)benzyl)-3,9,15,21-tetraisobutyl-4,10,12,16,22,24-hexamethyl-1,7,13,19-tetraoxa-4,10,16,22-tetraazacyclotetracosan-2,5,8,11,14,17,20,23-octaone]		0.001 to 0.01	0.01 to 0.1
CC(C)C[C@H]1C(=O)O[C@H](Cc2cccc(Cn3ccnc3Br)c2)C(=O)N(C)[C@@H](CC(C)C)C(=O)O[C@H](C)C(=O)N(C)[C@@H](CC(C)C)C(=O)O[C@H](Cc2ccc(Cn3ccnc3Br)cc2)C(=O)N(C)[C@@H](CC(C)C)C(=O)O[C@H](C)C(=O)N1C [Example 7-3, (3S,6R,9S,12R,15S,18R,21S,24R)-6-[[3-[(2-bromoimidazol-1-yl)methyl]phenyl]methyl]-18-[[4-[(2-bromoimidazol-1-yl)methyl]phenyl]methyl]-3,9,15,21-tetraisobutyl-4,10,12,16,22,24-hexamethyl-1,7,13,19-tetraoxa-4,10,16,22-tetrazacyclotetracosane-2,5,8,11,14,17,20,23-octaone]		0.0001 to 0.001	0.001 to 0.01
CC(C)C[C@H]1C(=O)O[C@H](Cc2ccc(Cn3nc(C(F)(F)F)cc3C(F)(F)F)cc2)C(=O)N(C)[C@@H](CC(C)C)C(=O)O[C@H](C)C(=O)N(C)[C@@H](CC(C)C)C(=O)O[C@H](Cc2ccccc2)C(=O)N(C)[C@@H](CC(C)C)C(=O)O[C@H](C)C(=O)N1C [Example 2-55, (3S,6R,9S,12R,15S,18R,21S,24R)-6-benzyl-18-(4-((3,5-bis(trifluoromethyl)-1H-pyrazol-1-yl)methyl)benzyl)-3,9,15,21-tetraisobutyl-4,10,12,16,22,24-hexamethyl-1,7,13,19-tetraoxa-4,10,16,22-tetraazacyclotetracosan-2,5,8,11,14,17,20,23-octaone]		0.0001 to 0.001	0.001 to 0.01
CC(C)C[C@H]1C(=O)O[C@H](Cc2ccc(Cn3cc(I)cn3)cc2)C(=O)N(C)[C@@H](CC(C)C)C(=O)O[C@H](C)C(=O)N(C)[C@@H](CC(C)C)C(=O)O[C@H](Cc2ccccc2)C(=O)N(C)[C@@H](CC(C)C)C(=O)O[C@H](C)C(=O)N1C [Example 2-41, (3S,6R,9S,12R,15S,18R,21S,24R)-6-benzyl-18-(4-((4-iodo-1H-pyrazol-1-yl)methyl)benzyl)-3,9,15,21-tetraisobutyl-4,10,12,16,22,24-hexamethyl-1,7,13,19-tetraoxa-4,10,16,22-tetraazacyclotetracosan-2,5,8,11,14,17,20,23-octaone]		0.0001 to 0.001	0.001 to 0.01
CC(C)C[C@H]1C(=O)O[C@H](Cc2ccc(Cn3cc(Cl)cn3)cc2)C(=O)N(C)[C@@H](CC(C)C)C(=O)O[C@H](C)C(=O)N(C)[C@@H](CC(C)C)C(=O)O[C@H](Cc2ccccc2)C(=O)N(C)[C@@H](CC(C)C)C(=O)O[C@H](C)C(=O)N1C [Example 2-25, (3S,6R,9S,12R,15S,18R,21S,24R)-6-benzyl-18-(4-((4-chloro-1H-pyrazol-1-yl)methyl)benzyl)-3,9,15,21-tetraisobutyl-4,10,12,16,22,24-hexamethyl-1,7,13,19-tetraoxa-4,10,16,22-tetraazacyclotetracosan-2,5,8,11,14,17,20,23-octaone]		0.0001 to 0.001	0.001 to 0.01
Cc1cc(C2CC2)n(Cc2ccc(C[C@H]3OC(=O)[C@H](CC(C)C)N(C)C(=O)[C@@H](C)OC(=O)[C@H](CC(C)C)N(C)C(=O)[C@@H](Cc4ccc(Cn5nc(C)cc5C5CC5)cc4)OC(=O)[C@H](CC(C)C)N(C)C(=O)[C@@H](C)OC(=O)[C@H](CC(C)C)N(C)C3=O)cc2)n1 [Example 1b-181, (3S,6R,9S,12R,15S,18R,21S,24R)-6,18-bis(4-((5-cyclopropyl-3-methyl-1H-pyrazol-1-yl)methyl)benzyl)-3,9,15,21-tetraisobutyl-4,10,12,16,22,24-hexamethyl-1,7,13,19-tetraoxa-4,10,16,22-tetraazacyclotetracosan-2,5,8,11,14,17,20,23-octaone]		0.001 to 0.01	0.01 to 0.1
